# Measurements as given in article PMC10208570, “Peptidomimetic antibiotics disrupt the lipopolysaccharide transport bridge of drug-resistant Enterobacteriaceae” (Science Advances, 2023).
# Where a SMILES comes first, the peptide text is derived from it. Bridges are numbered along the chain shown (N, C = ends). [ ]: non-standard residue; d: D form. dHyp = O=C(O)[C@H]1C[C@H](O)CN1; dPen = CC(C)(S)[C@@H](N)C(=O)O; Pen = CC(C)(S)[C@H](N)C(=O)O; dDab = NCC[C@@H](N)C(=O)O; Dab = NCC[C@H](N)C(=O)O
# Columns and labels:
# [1] = test system: K. pneumoniae ATCC 43816 (parent / WT); assay: microbe, parasite or virus in culture; settings: for MIC K. pneumoniae ATCC 43816 Parent: CLSI method, parent strain
# Method: (§1) MIC assays [Clinical and Laboratory Standards Institute (CLSI) methodology] and serial passage studies were performed as described by Luther et al. ([6]). […] Resistant mutants were isolated, and their MIC values were determined and sent to Microbes NG (Birmingham, United Kingdom) for whole-genome sequencing and bioinformatic analysis.
# [2] = test system: K. pneumoniae NCTC 13443 (NDM-1) LptA Q62L mutant; assay: microbe, parasite or virus in culture
# Method: as §1
# [3] = test system: E. coli ATCC 25922 LptA Q62L mutant; assay: microbe, parasite or virus in culture; settings: for MIC E. coli ATCC 25922 Q62L mutant: CLSI method, clone harboring LptA Q62L
# Method: as §1
# [4] = test system: E. coli ATCC 25922 (parent / WT); assay: microbe, parasite or virus in culture; settings: for MIC E. coli ATCC 25922 Parent: CLSI method, parent strain
# Method: as §1
# [5] = test system: K. pneumoniae NCTC 13443 (NDM-1) (parent / WT); assay: microbe, parasite or virus in culture
# Method: as §1
# human red blood cells = assay: Haemolysis; format: cell-based; settings: PBS-washed human red blood cells; 1 h at 200 mg/liter, 37°C; OD 540 nm; versus 100% lysis control 2.5% Triton X-100; biological replicates
# Method: To test their hemolytic potential, compounds were incubated in the presence of phosphate-buffered saline (PBS)–washed human red blood cells. After 1-hour incubation at 200 mg/liter and 37°C, the samples were centrifuged (3220g), the supernatants were diluted in Dulbecco’s PBS, and optical density at 540 nm was determined. The hemolysis induced by the compound was calculated versus a 100% lysis control prepared with 2.5% Triton X-100 (table S4A).
# in vitro = format: cell-based; settings: human
# Method: The cytotoxicity of compounds was determined by determining the number of viable cells using the Sigma Cell Counting Kit-8 (WST-8). HeLa cells were incubated at 37°C and 5% CO2 for 24 hours, after which the medium was replaced with fresh medium containing dilutions of compounds. […]
# LptAmQ62L = target: T1, LptAmQ62L (Escherichia coli, UniProt P0ADV1, Q62L); assay: biochemical; format: binding, E. coli
# T1 construct: His6-GB1 (N, cleaved yes); made in house; host or cells: E. coli BL21 (DE3)
# T1 sequence (P0ADV1 28-159 Q62L): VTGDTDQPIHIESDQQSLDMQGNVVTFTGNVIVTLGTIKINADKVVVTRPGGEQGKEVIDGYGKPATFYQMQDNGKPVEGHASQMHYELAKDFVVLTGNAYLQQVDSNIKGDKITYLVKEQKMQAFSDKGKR
# Method: (§2) Protein stocks were purified and concentrated in buffer 1 [50 mM Na-Pi (pH 7) and 150 mM NaCl] and, if necessary, diluted to desired concentrations using buffer 2 [50 mM Na-Pi (pH 7), 150 mM NaCl, and 0.05% Tween 20]. Peptide stocks and fluorescently labeled peptide stocks were made in buffer 2. Every serial dilution consisted of 24 wells, the first well with the highest concentrate and the last well (well 24) with the lowest. First, 50 μl of buffer 2 was added to the wells 2 to 24 of each serial dilution. Then, 100 μl of concentrated unlabeled peptide/protein in their respective buffers was added to the first well. Fifty microliters were taken from the first well and added to the second well for a 1:1 serial dilution and continued for the 24 wells. […] Plates were covered with adhesive seals and left to incubate overnight at 4°C before FP measurements the next day. Anisotropy was measured using the Tecan Safire2 plate reader using a 10-nm bandwidth and setting the excitation and emission wavelengths to 635 and 670 nm, respectively. The G-factor (G) was also determined empirically as 1.094 for the instrument and included in all the anisotropy calculations.
# (§3) For the indirect binding assays, r was calculated in the same manner as the direct binding assays. […] The control was subtracted from r to yield r′. Data were fit to a sigmoidal interpolation model on GraphPad Prism 9, and an IC50 was generated for each unlabeled peptide or protein measured.
# LptAm = target: T2, LptAm (Escherichia coli, UniProt P0ADV1); assay: biochemical; format: binding, E. coli
# T2 construct: His6-GB1 (N, cleaved yes); made in house; host or cells: E. coli BL21 (DE3)
# T2 sequence (P0ADV1 28-159): as the sequence (P0ADV1 28-159 Q62L) above, with L35Q counted along it
# Method: as §2, §3
# [6] = test system: Klebsiella pneumoniae NCTC 13443 YejM mutant; assay: microbe, parasite or virus in culture; settings: Klebsiella pneumoniae, NCTC13443, read-out: MIC Klebsiella pneumoniae NCTC 13443 YejM (1x)
# Method: as §1
# [7] = test system: Klebsiella pneumoniae ATCC 43816 LptA I36N mutant; assay: microbe, parasite or virus in culture; settings: Klebsiella pneumoniae, ATCC43816, read-out: MIC Klebsiella pneumoniae ATCC 43816 LptA I36N (1x)
# Method: as §1
# [8] = test system: Klebsiella pneumoniae ATCC 43816 LapB mutant; assay: microbe, parasite or virus in culture; settings: Klebsiella pneumoniae, ATCC43816, read-out: MIC Klebsiella pneumoniae ATCC 43816 LapB (1x)
# Method: as §1
# [9] = test system: Klebsiella pneumoniae ATCC 43816 PglJ, PhnJ, ThiH mutant; assay: microbe, parasite or virus in culture; settings: Klebsiella pneumoniae, ATCC43816, read-out: MIC Klebsiella pneumoniae ATCC 43816 PglJ, PhnJ, ThiH (1x)
# Method: as §1
# [10] = test system: Klebsiella pneumoniae NCTC 13443 LpxC, LpxD mutant; assay: microbe, parasite or virus in culture; settings: Klebsiella pneumoniae, NCTC13443, read-out: MIC Klebsiella pneumoniae NCTC 13443 LpxC, LpxD (1x)
# Method: as §1
# [11] = test system: Escherichia coli ATCC 25922 KdsD mutant; assay: microbe, parasite or virus in culture; settings: Escherichia coli, ATCC25922, read-out: MIC Escherichia coli ATCC 25922 KdsD (2x)
# Method: as §1
# [12] = test system: Escherichia coli ATCC 25922 LptA E84D mutant; assay: microbe, parasite or virus in culture; settings: Escherichia coli, ATCC25922, read-out: MIC Escherichia coli ATCC 25922 LptA E84D (1x)
# Method: as §1
# [13] = test system: Klebsiella pneumoniae ATCC 43816 LptA I36S mutant; assay: microbe, parasite or virus in culture; settings: Klebsiella pneumoniae, ATCC43816, read-out: MIC Klebsiella pneumoniae ATCC 43816 LptA I36S (1x)
# Method: as §1
# [14] = test system: Klebsiella pneumoniae NCTC 13443 LptA I36S mutant; assay: microbe, parasite or virus in culture; settings: Klebsiella pneumoniae, NCTC13443, read-out: MIC Klebsiella pneumoniae NCTC 13443 LptA I36S (2x)
# Method: as §1
# [15] = test system: Klebsiella pneumoniae ATCC 43816 LptA L116Q mutant; assay: microbe, parasite or virus in culture; settings: Klebsiella pneumoniae, ATCC43816, read-out: MIC Klebsiella pneumoniae ATCC 43816 LptA L116Q (1x)
# Method: as §1
# [16] = test system: K. pneumoniae ATCC 43816 LptA Q62L mutant; assay: microbe, parasite or virus in culture
# Method: as §1
# [17] = test system: K. pneumoniae 968733 (CST-R); assay: MIC assay (CLSI); format: cell-based, Klebsiella pneumoniae; settings: CLSI method; colistin-resistant strain
# Method: as §1
# [18] = CLSI method, clone harboring LptA Q62L
smiles,measurement,setting,value
CC[C@H](C)[C@H](NC(=O)[C@@H](NC(=O)[C@@H]1CCCN1C(=O)[C@@H](NC(=O)[C@@H]1CCCN1C(=O)[C@H](CCCCN)NC(=O)[C@@H](N)CCCCN)C(C)C)[C@@H](C)CC)C(=O)N[C@@H](Cc1ccc(O)cc1)C(=O)N[C@@H]1C(=O)N[C@@H](CC(N)=O)C(=O)N[C@@H](CCCNC(=N)N)C(=O)N[C@@H](CCN)C(=O)N[C@@H]([C@@H](C)O)C(=O)N[C@H](CCN)C(=O)N[C@@H](CCCCN)C(=O)N[C@H](C(=O)N[C@@H](CCN)C(=O)N[C@@H](CCCNC(=N)N)C(=O)N[C@@H](Cc2ccc(O)cc2)C(=O)O)CSSC1(C)C [Compound 2] (H-KKPVPIIY[Pen]NR[Dab]T[dDab]KC[Dab]RY-OH; disulfide 9-16),MIC K. pneumoniae ATCC 43816 Parent,[1],0.125 micrograms per milliliter
same,MIC K. pneumoniae NCTC 13443 (NDM-1) Q62L mutant,[2]; [18],>8 micrograms per milliliter
same,MIC E. coli ATCC 25922 Q62L mutant,[3],2 micrograms per milliliter
same,MIC E. coli ATCC 25922 Parent,[4],0.031 micrograms per milliliter
same,MIC K. pneumoniae NCTC 13443 (NDM-1) Parent,"[5]; CLSI method, parent strain",0.5 micrograms per milliliter
same,Haemolysis % at 0.2 g/L,human red blood cells,0%
same,IC50 at 48 h,in vitro,60000 nM
same,IC50,LptAmQ62L,19.3 ± 6.3 nM
same,Ki,LptAmQ62L,13.1 ± 4.2 nM
same,IC50,LptAm,12.6 ± 0.7 nM
same,Ki,LptAm,2.1 ± 0.1 nM
CN[C@H](CC(C)C)C(=O)N[C@H]1C(=O)N[C@@H](CC(N)=O)C(=O)N[C@H]2C(=O)N[C@H]3C(=O)N[C@H](C(=O)N[C@H](C(=O)O)c4cc(O)cc(O)c4-c4cc3ccc4O)[C@H](O)c3ccc(c(Cl)c3)Oc3cc2cc(c3O[C@@H]2O[C@H](CO)[C@@H](O)[C@H](O)[C@H]2O[C@H]2C[C@](C)(N)[C@H](O)[C@H](C)O2)Oc2ccc(cc2Cl)[C@H]1O [Vancomycin],MIC,"[1]; Klebsiella pneumoniae, ATCC43816, read-out: MIC Klebsiella pneumoniae ATCC 43816 WT",> 64 µg/mL
same,MIC,"[2]; Klebsiella pneumoniae, NCTC13443, read-out: MIC Klebsiella pneumoniae NCTC 13443 LptA Q62L (5x)",> 64 µg/mL
same,MIC,"[3]; Escherichia coli, ATCC25922, read-out: MIC Escherichia coli ATCC 25922 LptA Q62L (7x)",> 64 µg/mL
same,MIC,[6],> 64 µg/mL
same,MIC,[7],> 64 µg/mL
same,MIC,[8],> 64 µg/mL
same,MIC,[9],> 64 µg/mL
same,MIC,[10],> 64 µg/mL
same,MIC,"[4]; Escherichia coli, ATCC25922, read-out: MIC Escherichia coli ATCC 25922 WT",> 64 µg/mL
same,MIC,[11],> 64 µg/mL
same,MIC,"[5]; Klebsiella pneumoniae, NCTC13443, read-out: MIC Klebsiella pneumoniae NCTC 13443 WT",> 64 µg/mL
same,MIC,[12],> 64 µg/mL
same,MIC,[13],> 64 µg/mL
same,MIC,[14],> 64 µg/mL
same,MIC,[15],> 64 µg/mL
same,MIC,"[16]; Klebsiella pneumoniae, ATCC43816, read-out: MIC Klebsiella pneumoniae ATCC 43816 LptA Q62L (4x)",> 64 µg/mL
CC[C@@H](C)[C@@H](NC(=O)[C@H]1C[C@H](O)CN1C(=O)[C@H](N)C(C)C)C(=O)N[C@@H](C(=O)N[C@H](Cc1ccc(O)cc1)C(=O)N[C@H]1C(=O)N[C@H](CC(N)=O)C(=O)N[C@H](CCCNC(=N)N)C(=O)N[C@H](CCN)C(=O)N[C@H]([C@H](C)O)C(=O)N[C@@H](CCN)C(=O)N[C@H](CCCCN)C(=O)N[C@@H](C(=O)N[C@H](CCN)C(=O)N[C@H](CCCNC(=N)N)C(=O)N[C@H](Cc2ccc(O)cc2)C(=O)O)CSSC1(C)C)[C@H](C)O [6-enant.] (H-[dV][dHyp][dI][dT][dY][dPen][dN][dR][dDab][dT][Dab][dK][dC][dDab][dR][dY]-OH; disulfide 6-13),MIC K. pneumoniae 968733 (CST-R) Parent,[17],>8 micrograms per milliliter
same,MIC K. pneumoniae ATCC 43816 Parent,[1],>8 micrograms per milliliter
same,MIC E. coli ATCC 25922 Q62L mutant,[3],>8 micrograms per milliliter
same,MIC E. coli ATCC 25922 Parent,[4],>8 micrograms per milliliter
same,MIC K. pneumoniae ATCC 43816 Q62L mutant,[16]; [18],>8 micrograms per milliliter
